# Laboratory results: patent publication US8338414B2, “Immunosuppressive agent and anti-tumor agent comprising heterocyclic compound as active ingredient” (Zenyaku Kogyo KabushikiKaisha, priority 2005, dated 2012)
# Read-outs that look alike come from different tables or passages of the source.
# Experiments:
# mouse spleen cells = test: Proliferation inhibition assay for mouse spleen cells; assay type: cell-based; conditions: 72 h, 3 days, Alamar Blue
# Summary of the method: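 C57BL/6N female mouse spleen cells (2×10^6 cells/mL) stimulated with Con A (3 μg/mL), LPS (100 μg/mL) or anti-mouse IgM (100 μg/mL) alongside serially diluted compounds, 3 days at 37° C, 5% CO2. Alamar Blue added for a further day; fluorescence read at ex 530/em 590 nm.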
# [1] = tested on: human peripheral blood mononuclear cells; test: Proliferation inhibition assay for human peripheral blood mononuclear cells; assay type: cell-based; conditions: Homo sapiens, 72 h; PBMC, anti-CD3 and anti-CD28 antibody, 3 days, Alamar Blue
# Summary of the method: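 PBMC from healthy donors (1×10^5 cells/mL) in RPMI 1640 with 10% FBS were stimulated with plate-bound anti-CD3 plus anti-CD28 (1 μg/mL). Serially diluted compounds were added and cells were cultured 3 days at 37 °C. Alamar Blue was then added for 1 day and fluorescence was read at ex 530/em 590 nm.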
# [2] = tested on: human peripheral blood mononuclear cells; test: Activation inhibition assay for human peripheral blood mononuclear cells (CD40L, CD69 expression); assay type: cell-based; conditions: PBMC, anti-CD3 + anti-CD28, 6 hours, flow cytometry
# Description: In accordance with the method of Assay Example 2, PBMC (2×10^6 cells/mL) was isolated from human peripheral blood, suspended in RPMI 1640 medium (containing 10% fetal bovine serum, 10 mM HEPES, 1 mM pyruvic acid, and 4.5 g/L glucose), and seeded in wells of a 96 well plate at 0.225 mL per well. The test substances were added to respective wells, and then an anti-CD3 antibody (2 μg/mL) and an anti-CD28 antibody (1 μg/mL) were added. Then, after incubation under conditions of carbon dioxide 5% at a temperature 37° C. for 6 hours, the expressions of CD40L and CD69, activation markers, were analysed by flow cytometry. As a result, when the cells were stimulated by both an anti-CD3 antibody and an anti-CD28 antibody, CD40L was expressed on 14.4% of PBMC, which was also CD4 positive. However, the proportion of the cells which expressed CD40L decreased when the cells had been treated with test substances (Compound 4: 4.9%; Compound 20: 3.7%, Compound 24: 3.6%).
# [3] = tested on: Rabbit synoviocytes HIG-82; test: Inhibition assay for proliferation of rabbit synoviocyte; assay type: cell-based; conditions: Oryctolagus cuniculus, 72 h; HIG-82, 3 days, Alamar Blue
# [4] = tested on: allogeneic mixed lymphocyte reaction; test: Allogeneic mixed lymphocyte reaction; assay type: cell-based, mouse; conditions: Mus musculus, Lymphocyte; C57BL/6N spleen stimulator cells, BALB/c lymph node responder cells, 86 hours, BrdU
# Summary of the method: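 Stimulators were C57BL/6N female spleen cells and responders BALB/c female peripheral lymph node mononuclear cells (mice 8-10 weeks old). Cells suspended at 2×10^6 cells/mL in RPMI 1640 with 10% FBS and antibiotics.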
# Daudi cells = test: Proliferation inhibitory activity on hematologic neoplasm cells, Daudi; assay type: cell-based; conditions: Homo sapiens, Daudi, 72 h; 3 days, Alamar Blue
# Jurkat cells = test: Proliferation inhibitory activity on hematologic neoplasm cells, Jurkat; assay type: cell-based; conditions: Homo sapiens, Jurkat, 72 h; 3 days, Alamar Blue
# HL 60 cells = test: Proliferation inhibitory activity on hematologic neoplasm cells, HL60; assay type: cell-based; conditions: Homo sapiens, HL-60, 72 h; 3 days, Alamar Blue
# THP-1 cells = test: Proliferation inhibitory activity on hematologic neoplasm cells, THP-1; assay type: cell-based; conditions: Homo sapiens, THP-1, 72 h; 3 days, Alamar Blue
# U 937 cells = test: Proliferation inhibitory activity on hematologic neoplasm cells, U937; assay type: cell-based; conditions: Homo sapiens, U-937, 72 h; 3 days, Alamar Blue
# fulminant hepatitis = test: Fulminant hepatitis model (galactosamine and LPS); assay type: in vivo, mouse; conditions: BALB/c mice, galactosamine 800 mg/kg and LPS 110 μg/kg i.p.
# Description: BALB/c male mice (7 weeks old, purchased from Charles River Laboratories Japan Inc.) were used in the experiment. After having orally administered the test substances suspended in 5% HPC, galactosamine (800 mg/kg) and LPS (110 μg/kg) were intraperitoneally administered. Then, survival rates at 72 hours after administration were obtained.
# [5] = Toxicologic test for single oral administration; conditions: Sprague-Dawley (SD), rat, in vivo; SD male rats, single oral dose
# [6] = tested on: Salmonella typhimurium TA98, TA100, TA1535, TA1537 and Escherichia coli WP2uvrA; test: Ames test; assay type: cell-based; conditions: preincubation method, with or without S-9, up to 5000 μg/flat plate
# Description: Using 5 strains of Salmonella typhimurium TA98, TA100, TA1535, TA1537 and Escherichia coli WP2uvrA, the test substances (Compound 4, Compound 19, Compound 22 and Compound 24) were tested for their mutagenesis according to a preincubation method.
compound,measurement,setting,value
"COc1cccc2c1nc(C(F)F)n2-c1nc(N2CCOCC2)cc(N2C[C@@H](C)O[C@@H](C)C2)n1 [Compound 24, 2-(2-Difluoromethyl-4-methoxybenzimidazol-1-yl)-4-(cis-2,6-dimethylmorpholino)-6-morpholinopyrimidine]",IC50,"mouse spleen cells; LPS 100 μg/mL, read-out: Inhibition of LPS response",100 to 10000 nM
same,IC50,"mouse spleen cells; anti-mouse IgM antibody 100 μg/mL, read-out: Inhibition of Anti-IgM antibody response",100 to 10000 nM
same,IC50,"mouse spleen cells; concanavalin A 3 μg/mL, read-out: Inhibition of Con A response",100 to 10000 nM
same,IC50,[1],471 nM
same,proportion of the cells which expressed CD40L,"[2]; CD4 positive, 14.4% without test substance",3.6%
same,proportion of CD4-positive cells which expressed CD69,[2]; 28.8% without test substance,17.7%
same,proportion of CD4-negative cells which expressed CD69,[2]; 50.9% without test substance,22.4%
same,IC50,[3],441 nM
same,IC50,[4],286 nM
same,IC50,Daudi cells,397 nM
same,IC50,Jurkat cells,1450 nM
same,IC50,HL 60 cells,823 nM
same,IC50,THP-1 cells,859 nM
same,IC50,U 937 cells,2790 nM
same,Survival Rate after 72 Hours,fulminant hepatitis; 50 mg/kg oral,33%
same,Survival Rate after 72 Hours,fulminant hepatitis; 100 mg/kg oral,67%
same,LD50,[5],600 to 900 mg/kg
same,mutagenesis (colony number of reverse mutation),[6],negative
